Assay results taken from patent publication EP0866684B1, “COSMETIC HAIR TREATMENT METHOD” (UNILEVER PLC, priority 1995, dated 1997).
Like-named read-outs stand apart in the source and are kept apart here.

Key:
[1] = test system: isolated human hair follicles; assay: Diameter of hair fibres grown in vitro, Laser Scan Micrometer (Example 4); type: cell-based; details: range of cysteine concentrations, 7-11 days of culture
Experimental: Follicles were isolated as described in Example 1 and placed into culture in supplemented Williams E medium containing a range of concentrations of cysteine. Following several days of culture(7-11), follicles were removed from the medium and the fibres isolated from the follicles as described above. The diameter of the fibres was measured using a modified Laser Scan Micrometer (Mitotoyu) coupled to a moving jig which was capable of rotating the fibre through 180° and moving the fibre through the laser beam at intervals of 0.2mm. Each isolated fibre contained a small part which was formally grown in vivo, the diameter of this "in vivo" end of the fibre. The diameter of the fibre grown in vitro was measured at intervals of 0.2mm along the fibre. For estimation of the effect of different media concentrations of cysteine on diameter, the average in vitro diameter was compared across the treatment concentrations of cysteine and the ratio of in vitro diameter to in vivo diameter was calculated.

sheep = details: cited from earlier work; for sulphur content of the "new" wool / wool growth: abomasal or intravenous infusion, sheep consuming roughage-based diets; for increase in fibre diameter: cysteine infusion, sheep wool
[2] = test system: isolated human hair follicles; assay: Incorporation of radiolabelled cysteine into hair fibre in vitro (Example 2); type: cell-based; details: 5 hours with a range of cysteine concentrations, partly radiolabelled; 48 hours chase; liquid scintillation counting of the fibre
Experimental: Follicles were isolated as described in Example 1 and cultured for 5 hours in the presence of a range of concentrations of cysteine, a small proportion of which was radiolabelled. After 5 hours the follicles were transferred to normal supplemented Williams E medium to "chase" the radioactivity into the fibre being grown in the follicle, for 48 hours. The hair fibre was isolated from each follicle using a combination of detergent and enzyme and the 'naked' fibre dissolved and subjected to liquid scintillation counting.

[3] = test system: isolated human hair follicles; assay: Fibre diameter after change from lower to higher cysteine concentration (Example 5); type: cell-based
Experimental: Follicles were isolated as described in Example 1 and cultured as described in Example 3. Fibres were isolated and diameter measured as described in Example 4. […] The change in diameter was calculated by taking, firstly the diameter at the narrowest part of the fibre for each of the three treatments and secondly the diameter of the fibre during growth after addition of cysteine - deemed to be the in vitro diameter, and taking the ratio of these to the in vivo diameter.

[4] = test system: isolated human hair follicles; assay: In vitro hair follicle growth test: growth at varied cysteine concentration (Example 1); type: cell-based; details: concentration of cysteine + cystine (half cystine) varied in supplemented Williams E medium
Experimental: The effect of cysteine on hair diameter was assessed using an in vitro test which uses isolated human hair follicles in a culture medium.
Human hair follicles were isolated from scalp skin by the methods described by Philpott et al J Cell Science 97 463-471, 1990. […] Follicles isolated in this way were cultured as described by Westgate et al Br. J. Dermatol 129 372-379, 1993 in a completely defined culture medium called Williams E medium (obtainable from ICN FLOW), the latter supplemented with antibiotics, glutamine, hydrocortisone and Insulin. In this example the concentration of cysteine + cystine (referred to as half cystine) was varied and the daily rate of growth of follicles measured.

[5] = test system: isolated human hair follicles; assay: Growth of follicles moved from lower to higher cysteine medium (Example 3); type: cell-based; details: 2 days in medium with lower cysteine, then moved to medium with a higher amount of cysteine
Experimental: Human hair follicles were isolated as described in Example 1 and placed into culture in Williams E medium formulated to contain a lower concentration of cysteine. Follicles were cultured for 2 days in this medium then transferred to medium containing a higher amount of cysteine.

Compound | diameter of the fibres [1] | sulphur content of the "new" wool (sheep) | wool growth (sheep) | increase in fibre diameter (sheep; typical value) | increase in fibre diameter (sheep) | Incorporation of cysteine into human hair in vitro [2] | diameter of the fibre ([3]; after transfer to the higher concentration of cysteine (495.0µM)) | change in diameter (ratio to the in vivo diameter) ([3]; follicles where the cysteine concentration was reversed) | diameter of the fibre ([3]; lower concentration of cysteine (9.0µM), compared with the in vivo diameter) | daily rate of growth of follicles [4] | growth rate [5]
N[C@@H](CS)C(=O)O [cysteine] | dependent on the concentration of cysteine available to the follicles | increased | stimulates wool growth | 1-3 µm | 5-10% | concentration dependent | increased again | the fibre diameter was similarly reversed | decreased from the in vivo diameter | growth increases with cysteine concentration in the medium | increasing their growth rate
CSCC[C@H](N)C(=O)O [methionine, reference compound] | – | increased | stimulates wool growth | – | – | – | – | – | – | – | –
